Results: ChEMBL document CHEMBL3885881, “DrugMatrix”

Species: Rattus norvegicus
Test: DrugMatrix - Regimen: Daily Repeat
Type: toxicity, organism-based, Sprague-Dawley
Set-up: regimen Daily Repeat, gender Male, age 6-8 weeks
Settings: in vivo, po, route oral GAVAGE, vehicle .5 % CMC; for BASOPHIL / EOSINOPHIL / ERYTHROCYTE COUNT / HEMATOCRIT / HEMOGLOBIN / LEUKOCYTE COUNT / LYMPHOCYTE / MEAN CORPUSCULAR HEMOGLOBIN / MEAN CORPUSCULAR HEMOGLOBIN CONCENTRATION / MEAN CORPUSCULAR VOLUME / MONOCYTE / NEUTROPHIL / PLATELET COUNT: tissue Blood; for ALANINE AMINOTRANSFERASE / ALBUMIN / ALKALINE PHOSPHATASE / ASPARTATE AMINOTRANSFERASE / BLOOD UREA NITROGEN / CARBON DIOXIDE / CHLORIDE / CHOLESTEROL / CREATINE PHOSPHOKINASE / CREATININE / GLUCOSE / LACTATE DEHYDROGENASE / LIPASE / PHOSPHORUS / POTASSIUM / SODIUM / TOTAL BILIRUBIN / TOTAL PROTEIN / URIC ACID: tissue Plasma
[1] = 0 mg/kg, 72 h, dose level Control, time 3 day
[2] = 0 mg/kg, 120 h, dose level Control, time 5 day
[3] = 1200 mg/kg, 72 h, dose level High, time 3 day
[4] = 1200 mg/kg, 120 h, dose level High, time 5 day

CCCCC1=NC2(CCCC2)C(=O)N1Cc1ccc(-c2ccccc2-c2nnn[nH]2)cc1 [IRBESARTAN]
BASOPHIL [1]: 0.17%
EOSINOPHIL [1]: 0.83%
ERYTHROCYTE COUNT [1]: 7.2 x10E6/uL
HEMATOCRIT [1]: 43.13%
HEMOGLOBIN [1]: 14.63 G/DL
LEUKOCYTE COUNT [1]: 9.05 x10E3/uL
LYMPHOCYTE [1]: 75.17%
MEAN CORPUSCULAR HEMOGLOBIN [1]: 20.35 pg
MEAN CORPUSCULAR HEMOGLOBIN CONCENTRATION [1]: 33.95 G/DL
MEAN CORPUSCULAR VOLUME [1]: 59.93 fL
MONOCYTE [1]: 2.83%
NEUTROPHIL [1]: 21.17%
PLATELET COUNT [1]: 1093.17 x10E3/uL
ALANINE AMINOTRANSFERASE [1]: 49.17 u/L
ALBUMIN [1]: 4.33 G/DL
ALKALINE PHOSPHATASE [1]: 366.5 u/L
ASPARTATE AMINOTRANSFERASE [1]: 86.33 u/L
BLOOD UREA NITROGEN [1]: 17 mg/dL
CARBON DIOXIDE [1]: 24.17 mmol/L
CHLORIDE [1]: 102.83 MEQ/L
CHOLESTEROL [1]: 78.33 mg/dL
CREATINE PHOSPHOKINASE [1]: 320.83 u/L
CREATININE [1]: 0.3 mg/dL
GLUCOSE [1]: 140.83 mg/dL
LACTATE DEHYDROGENASE [1]: 210 u/L
LIPASE [1]: 9.33 u/L
PHOSPHORUS [1]: 9.12 mg/dL
POTASSIUM [1]: 5.65 MEQ/L
SODIUM [1]: 144.17 MEQ/L
TOTAL BILIRUBIN [1]: 0.1 mg/dL
TOTAL PROTEIN [1]: 6.3 G/DL
URIC ACID [1]: 1.03 mg/dL
BASOPHIL [2]: 0.17%
EOSINOPHIL [2]: 1%
ERYTHROCYTE COUNT [2]: 7.02 x10E6/uL
HEMATOCRIT [2]: 43.12%
HEMOGLOBIN [2]: 14.18 G/DL
LEUKOCYTE COUNT [2]: 9.63 x10E3/uL
LYMPHOCYTE [2]: 72%
MEAN CORPUSCULAR HEMOGLOBIN [2]: 20.25 pg
MEAN CORPUSCULAR HEMOGLOBIN CONCENTRATION [2]: 32.95 G/DL
MEAN CORPUSCULAR VOLUME [2]: 61.43 fL
MONOCYTE [2]: 2.67%
NEUTROPHIL [2]: 24.5%
PLATELET COUNT [2]: 1028.5 x10E3/uL
ALANINE AMINOTRANSFERASE [2]: 42.5 u/L
ALBUMIN [2]: 4.2 G/DL
ALKALINE PHOSPHATASE [2]: 300.33 u/L
ASPARTATE AMINOTRANSFERASE [2]: 87.67 u/L
BLOOD UREA NITROGEN [2]: 17 mg/dL
CARBON DIOXIDE [2]: 24.33 mmol/L
CHLORIDE [2]: 99 MEQ/L
CHOLESTEROL [2]: 70.67 mg/dL
CREATINE PHOSPHOKINASE [2]: 891.33 u/L
CREATININE [2]: 0.3 mg/dL
GLUCOSE [2]: 139.67 mg/dL
LACTATE DEHYDROGENASE [2]: 289.83 u/L
LIPASE [2]: 8.83 u/L
PHOSPHORUS [2]: 9.5 mg/dL
POTASSIUM [2]: 5.55 MEQ/L
SODIUM [2]: 139 MEQ/L
TOTAL BILIRUBIN [2]: 0.0833 mg/dL
TOTAL PROTEIN [2]: 6.1 G/DL
URIC ACID [2]: 0.98 mg/dL
BASOPHIL [3]: 0.33%
EOSINOPHIL [3]: 1%
ERYTHROCYTE COUNT [3]: 7.31 x10E6/uL
HEMATOCRIT [3]: 43.7%
HEMOGLOBIN [3]: 14.73 G/DL
LEUKOCYTE COUNT [3]: 11.5 x10E3/uL
LYMPHOCYTE [3]: 81.67%
MEAN CORPUSCULAR HEMOGLOBIN [3]: 20.17 pg
MEAN CORPUSCULAR HEMOGLOBIN CONCENTRATION [3]: 33.73 G/DL
MEAN CORPUSCULAR VOLUME [3]: 59.8 fL
MONOCYTE [3]: 2%
NEUTROPHIL [3]: 14.67%
PLATELET COUNT [3]: 1173.33 x10E3/uL
ALANINE AMINOTRANSFERASE [3]: 46 u/L
ALBUMIN [3]: 4.67 G/DL
ALKALINE PHOSPHATASE [3]: 305.33 u/L
ASPARTATE AMINOTRANSFERASE [3]: 75 u/L
BLOOD UREA NITROGEN [3]: 17.67 mg/dL
CARBON DIOXIDE [3]: 28.33 mmol/L
CHLORIDE [3]: 103.33 MEQ/L
CHOLESTEROL [3]: 73 mg/dL
CREATINE PHOSPHOKINASE [3]: 219 u/L
CREATININE [3]: 0.3 mg/dL
GLUCOSE [3]: 133.33 mg/dL
LACTATE DEHYDROGENASE [3]: 300.67 u/L
LIPASE [3]: 9.33 u/L
PHOSPHORUS [3]: 9.03 mg/dL
POTASSIUM [3]: 5.67 MEQ/L
SODIUM [3]: 146 MEQ/L
TOTAL BILIRUBIN [3]: 0.1 mg/dL
TOTAL PROTEIN [3]: 6.67 G/DL
URIC ACID [3]: 1.23 mg/dL
BASOPHIL [4]: 0.33%
EOSINOPHIL [4]: 1%
ERYTHROCYTE COUNT [4]: 7.01 x10E6/uL
HEMATOCRIT [4]: 42.37%
HEMOGLOBIN [4]: 14.23 G/DL
LEUKOCYTE COUNT [4]: 11.4 x10E3/uL
LYMPHOCYTE [4]: 79.67%
MEAN CORPUSCULAR HEMOGLOBIN [4]: 20.33 pg
MEAN CORPUSCULAR HEMOGLOBIN CONCENTRATION [4]: 33.57 G/DL
MEAN CORPUSCULAR VOLUME [4]: 60.47 fL
MONOCYTE [4]: 2%
NEUTROPHIL [4]: 17.33%
PLATELET COUNT [4]: 1226.33 x10E3/uL
ALANINE AMINOTRANSFERASE [4]: 44.67 u/L
ALBUMIN [4]: 4.23 G/DL
ALKALINE PHOSPHATASE [4]: 299.5 u/L
ASPARTATE AMINOTRANSFERASE [4]: 74.33 u/L
BLOOD UREA NITROGEN [4]: 18.67 mg/dL
CARBON DIOXIDE [4]: 20 mmol/L
CHLORIDE [4]: 98.33 MEQ/L
CHOLESTEROL [4]: 74 mg/dL
CREATINE PHOSPHOKINASE [4]: 216.33 u/L
CREATININE [4]: 0.27 mg/dL
GLUCOSE [4]: 136 mg/dL
LACTATE DEHYDROGENASE [4]: 197.33 u/L
LIPASE [4]: 8.67 u/L
PHOSPHORUS [4]: 7.83 mg/dL
POTASSIUM [4]: 5.6 MEQ/L
SODIUM [4]: 138 MEQ/L
TOTAL BILIRUBIN [4]: 0.1 mg/dL
TOTAL PROTEIN [4]: 6.17 G/DL
URIC ACID [4]: 0.93 mg/dL
